Assay results taken from patent publication US8865750B2, “Small molecule inhibitors of RGS proteins” (The Regents of The University of Michigan, priority 2011, dated 2014).
Like-named read-outs stand apart in the source and are kept apart here.

Legend:
[1] = test system: RGS4; experiment: FCPIA: Gαo binding to RGS4; conditions: for RGS4 Hill Slope: Table 3; for IC50: read-out: RGS4 IC50
Source text: (§1) FCPIA Dose Response and Reversibility Experiments:

[2] = target: RGS8 (Homo sapiens (Human), UniProt P57771); experiment: FCPIA: Gαo binding to RGS8; conditions: for RGS8 Hill Slope: Table 3; for IC50: read-out: RGS8 IC50
RGS8, sequence (P57771 other isoform, or with tags, fused parts or gaps): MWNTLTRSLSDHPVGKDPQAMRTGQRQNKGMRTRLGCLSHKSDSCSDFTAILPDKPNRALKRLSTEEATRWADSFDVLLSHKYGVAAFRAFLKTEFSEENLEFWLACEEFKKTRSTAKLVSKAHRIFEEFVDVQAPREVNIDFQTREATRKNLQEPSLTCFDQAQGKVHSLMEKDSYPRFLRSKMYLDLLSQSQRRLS
Source text: as §1

[3] = test system: HEK293 cells; experiment: Calcium mobilization induced by compound alone; format: cell-based; conditions: for Emax at 10 µM: Homo sapiens, HEK293, read-out: Calcium transient (% 50014); for induction of calcium transient by compound alone: 10 μM, HEK293 cells;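 for Calcium transient (% 50014): percent of response to 10 µM reference CCG-50014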
Procedure: Calcium Mobilization Experiments:
A stable cell line was developed based upon the HEK-293 Flp-In TREx cell line (Invitrogen, Carlsbad, Calif.) that stably express the muscarinic M3 receptor and have human RGS4 expression under doxycycline control. Cells were maintained in DMEM supplemented with 10% fetal bovine serum and Penicillin (100 units/ml)-Streptomycin (100 μg/ml) under 5% CO2 at 37° C. For experiments, cells were split into 96-well black, clear bottom, poly-D-lysine coated microtiter plates (Nunc, Cat. #152037) at a density of 20,000 cells/well in DMEM containing 10% fetal bovine serum and Penicillin (100 units/ml), Streptomycin (100 μg/ml). RGS4 expression was induced by supplementing the medium with 1 μg/mL doxycycline for 24-48 hours before experimentation. Cells were loaded with Fluo-4 No Wash dye in buffer for 30 minutes at 37° C. Compounds and/or carbachol were added to the wells and the fluorescence intensity was measured using a FlexStation (Molecular Devices, Sunnyvale, Calif.) plate reader. Data analysis was performed by calculating the area under the curve or maximal fluorescence intensity from a 120 second kinetic measurement.

[4] = Table 3, duplex FCPIA, average of two experiments

| Structure (SMILES) | RGS4 Hill Slope [1] | IC50 [1, 4] [µM] | RGS8 Hill Slope [2] | IC50 [2, 4] [µM] | Emax at 10 µM [3] [%] | IC50 ([1]; Table 6, FCPIA) [µM] | IC50 ([2]; Table 6, FCPIA) [µM] | induction of calcium transient by compound alone [3] |
| --- | --- | --- | --- | --- | --- | --- | --- | --- |
| Cc1ccc(Cn2sc(=O)n(Cc3ccc(F)cc3)c2=O)cc1 [CCG-203742, 2-(4-methylbenzyl)-4-(4-fluorobenzyl)-1,2,4-thiadiazolidine-3,5-dione] | −1.19 | 0.013 | −0.22 | 39.8 | 108 | – | – | – |
| Cc1ccc(-n2sc(=O)n(Cc3ccc(Cl)c(Cl)c3)c2=O)cc1 [CCG-203743, 2-p-tolyl-4-(3,4-dichlorobenzyl)-1,2,4-thiadiazolidine-3,5-dione] | −1.43 | 0.034 | −0.65 | 15.7 | 45.6 | – | – | – |
| COc1ccc(-n2sc(=O)n(Cc3ccccc3)c2=O)cc1 [CCG-203746, 2-(4-methoxyphenyl)-4-benzyl-1,2,4-thiadiazolidine-3,5-dione] | −1.45 | 0.024 | −1.00 | 12.3 | 74.6 | – | – | – |
| CCCCn1sc(=O)n(C)c1=O [CCG-203757, 2-butyl-4-methyl-1,2,4-thiadiazolidine-3,5-dione] | −1.01 | – | −1.10 | 28.4 | 138 | 0.0235 | – | – |
| Cc1ccc(-n2sc(=O)n(C)c2=O)cc1 [CCG-203759, 2-p-tolyl-4-methyl-1,2,4-thiadiazolidine-3,5-dione] | −1.56 | 0.019 | −1.06 | – | 238 | – | 8.4 | – |
| Cn1c(=O)sn(C(C)(C)C)c1=O [CCG-203760, 2-t-butyl-4-methyl-1,2,4-thiadiazolidine-3,5-dione] | −0.99 | 0.028 | −0.89 | – | 47.2 | – | 56 | no ability to induce calcium mobilization |
| Cc1ccc(-n2sc(=O)n(CC(C)C)c2=O)cc1 [CCG-203761, 2-p-tolyl-4-isobutyl-1,2,4-thiadiazolidine-3,5-dione] | −1.47 | – | −0.92 | – | 98.9 | 0.014 | 7.7 | – |
| CCn1sc(=O)n(CC(C)C)c1=O [CCG-203762, 2-ethyl-4-isobutyl-1,2,4-thiadiazolidine-3,5-dione] | −0.87 | 0.026 | −0.78 | – | 38.3 | – | 70.6 | no ability to induce calcium mobilization |
| CC(C)Cn1c(=O)sn(C(C)(C)C)c1=O [CCG-203763, 2-t-butyl-4-isobutyl-1,2,4-thiadiazolidine-3,5-dione] | −0.85 | 0.029 | −0.52 | 194 | 73.5 | – | – | – |
| CCCCn1sc(=O)n(Cc2ccc(F)cc2)c1=O [CCG-203765, 2-butyl-4-(4-fluorobenzyl)-1,2,4-thiadiazolidine-3,5-dione] | −0.81 | 0.016 | −0.59 | 31.6 | 184 | – | – | – |
| CCCCn1c(=O)sn(-c2ccc(C)cc2)c1=O [CCG-203767, 2-p-tolyl-4-butyl-1,2,4-thiadiazolidine-3,5-dione] | −1.46 | 0.02 | −0.96 | – | 123 | – | 9.5 | – |
| CCCCn1c(=O)sn(C(C)(C)C)c1=O [CCG-203768, 2-t-butyl-4-butyl-1,2,4-thiadiazolidine-3,5-dione] | −3.18 | 0.054 | −0.70 | 119 | 91.7 | – | – | – |
| CCCCn1sc(=O)n(CCCC)c1=O [CCG-203770, 2,4-dibutyl-1,2,4-thiadiazolidine-3,5-dione] | −0.83 | 0.03 | −0.53 | 122 | 188 | – | – | – |
| O=c1sn(-c2cccc(C(F)(F)F)c2)c(=O)n1Cc1ccccc1 [CCG-203772] | −1.43 | 0.057 | −1.15 | 16.4 | 165 | – | – | – |
| O=c1sn(-c2cccc(Cl)c2)c(=O)n1Cc1ccccc1 [CCG-203773, 2-(3-chlorophenyl)-4-benzyl-1,2,4-thiadiazolidine-3,5-dione] | −1.25 | 0.033 | −0.87 | – | 199 | – | 10.9 | – |
| O=c1sn(-c2cccc(C(F)(F)F)c2)c(=O)n1Cc1ccc(F)cc1 [CCG-203775, 2-(3-trifluoromethylphenyl)-4-(4-fluorobenzyl)-1,2,4-thiadiazolidine-3,5-dione] | −0.88 | 0.079 | −1.14 | 16.2 | 170 | – | – | – |
| O=c1sn(-c2cccc(Cl)c2)c(=O)n1Cc1ccc(F)cc1 [CCG-203776, 2-(3-chlorophenyl)-4-(4-fluorobenzyl)-1,2,4-thiadiazolidine-3,5-dione] | −1.08 | 0.052 | −1.07 | 12.8 | 223 | – | – | – |
| Cc1ccc(-n2sc(=O)n(Cc3cccc(Cl)c3)c2=O)cc1 [CCG-203777, 2-p-tolyl-4-(3-chlorobenzyl)-1,2,4-thiadiazolidine-3,5-dione] | −0.96 | 0.017 | −1.00 | 17.5 | 179 | – | – | – |
| Cc1cccc(-n2sc(=O)n(Cc3ccc(F)cc3)c2=O)c1 [CCG-203788, 2-(3-methylphenyl)-4-(4-fluorobenzyl)-1,2,4-thiadiazolidine-3,5-dione] | −1.91 | 0.121 | −1.09 | 7.1 | 134 | – | – | – |
| CN(C)c1ccc(-n2sc(=O)n(Cc3ccc(F)cc3)c2=O)cc1 [S2, 2-(4-dimethylaminophenyl)-4-(4-fluorobenzyl)-1,2,4-thiadiazolidine-3,5-dione] | −1.65 | – | −1.28 | 10.3 | 111 | – | 10.3 | – |
| CC(C)(C)c1ccc(-n2sc(=O)n(Cc3ccccc3)c2=O)cc1 [S3, 2-(4-t-butylphenyl)-4-benzyl-1,2,4-thiadiazolidine-3,5-dione] | −1.79 | – | −0.78 | 17.4 | 123 | – | 17.4 | – |
| O=c1sn(-c2ccc(Cl)cc2)c(=O)n1Cc1ccc(Cl)cc1 [S5, 2-(4-chlorophenyl)-4-(4-chlorobenzyl)-1,2,4-thiadiazolidine-3,5-dione] | −1.48 | – | −1.36 | 12.7 | 141 | – | 12.7 | – |
| COc1ccc(-n2sc(=O)n(Cc3ccc(Cl)cc3)c2=O)cc1 [S6, 2-(4-methoxyphenyl)-4-(4-chlorobenzyl)-1,2,4-thiadiazolidine-3,5-dione] | −1.73 | – | −0.91 | 40.2 | 104 | – | 40.2 | – |
| Cc1ccc(Cn2sc(=O)n(Cc3ccc(Cl)cc3)c2=O)cc1 [S8, 2-(4-methylbenzyl)-4-(4-chlorobenzyl)-1,2,4-thiadiazolidine-3,5-dione] | −1.23 | – | −0.60 | 337 | 11.4 | – | 337 | – |
